# Laboratory results from patent US12186433B2, “Nanocapsules comprising modified nucleobases and/or nucleosides, hydrogels and oleogels comprising them and uses thereof” (UNIVERSITE D'ANGERS, priority 2017, dated 2025).
# Assays:
# [1] = solubilized in Labrafac at 70° C., then cooling
# Method: Cyt-C16 was solubilized in Labrafac at 70° C. under magnetic stirring. […] The viscoelastic properties of the oleogels (Cyt-016 from 0.005 to 0.2 mmol·g^−1 of Labrafac, corresponding to Cyt-C16 from 0.25 to 9.95% (w/wLabrafac)), at 25° C. were measured using a Kinexus® rheometer (Malvern Instruments S.A., United Kingdom), with a plate plate geometry (diameter 20 mm, gap: 800 μm). The oleogels were deposited directly on the bottom plate geometry of the rheometer and the top plate geometry was placed in contact with the sample. Oscillatory strain sweeps at 1 Hz constant frequency were performed to determine the linear regime characterized by constant dynamic moduli (elastic: G′ and viscous: G″ moduli), independent of the strain amplitude. In this regime (0.01% constant shear strain), G′ and G′ were measured as a function of angular frequency (0.1 to 10 Hz). In addition, a temperature ramp from 25 to 70° C. (2° C.·min^−1) was performed at 0.01% constant shear strain and 1 Hz constant angular frequency. All these experiments were repeated in triplicate.
# THP-1 cells = test: Cellular toxicity, MTS assay, THP-1 cells; assay type: cell-based, human; conditions: THP1 cell line, Cyt-C16 2.5% (w/wLabrafac) at the LNC surface
# Method: THP-1 cells (human monocyte/macrophage cell line obtained from ATCC, Manassas, VA, USA) were grown in suspension at 37° C., 90% humidity, 5% CO2 in RPMI 1640 medium, completed with decomplemented FBS (10% v/v), penicillin (100 UI·mL^−1), streptomycin ([…]), amphotericin B ([…]), HEPES 10 mM (1% v/v), Pyruvate Sodium 100 mM (1% v/v) and β-mercaptoethanol 20 μM (1% v/v). Cell differentiation was induced in the same medium by adding PMA 200 nM. A 48-h incubation allows the cells to adhere (15·10^3 cells/well in a 96-well cell culture dish). After medium aspiration to eliminate non-adhered cells, cells were washed again with fresh medium.
# B6-KPC3 cells (pancreas tumor from transgenic KPC mice) (gift from the Department of Oncology and Surgical Sciences of Padova, Pr. Vincenzo Bronte), were grown in suspension at 37° C., 90% humidity, 5% CO2 in DMEM medium, completed with decomplemented FBS (10% v/v), penicillin (100 UI·mL^−1), streptomycin ([…]), amphotericin B ([…]), HEPES 10 mM (1% v/v), L-glutamin 2 mM (1% v/v), and β-mercaptoethanol 20 μM (1% v/v). […] The cytotoxicitiy of diluted LNCs (diameter 50 or 100 nm), non-loaded or loaded with Cyt-C16 2.5% (w/wLabrafac), in cell culture medium, was determined. […] The percentage of cell viability was calculated according to the following equation: […]
# [2] = phase-inversion process
# Source text: The LNCs formulation was based on a phase-inversion process, from oil-in-water emulsion at low temperature to water-in-oil emulsion at high temperature. The quantities of oil phase (Labrafac), aqueous phase (water and NaCl) and surfactants (Kolliphor and Span 80) for each formulation were precisely weighed. For 25 nm-diameter LNCs, mLabrafac=0.6 g, mKol=1.8 g, mSpan80=0.3 g, mWater=1.3 g and mNaCl=0.054 g; for 50 nm-diameter LNCs, mLabrafac=1.1168 g, mKol=0.9168 g, mSpan80=0.45 g, mWater=1.5168 g and mNaCl=0.054 g; for 75 nm-diameter LNCs, mLabrafac=1.8 g, mKol=1.3 g, mSpan80=0.3 g, mWater=0.6 g and mNaCl=0.054 g; for 100 nm-diameter LNCs, mLabrafac=1.8 g, mKol=0.95 g, mSpan80=0.3 g, mWater=0.95 g and mNaCl=0.054 g.
# Then, Kolliphor and the aqueous phase were added and the mixture was heated to 75° C. under magnetic stirring followed by cooling to 45° C. (rate of 5° C.·min^−1). This cycle was repeated three times and during the last temperature decrease at the phase-inversion temperature (about 60° C.), an irreversible shock was induced by dilution with 2 mL of pure water. Afterwards, slow magnetic stirring was applied to the suspension of LNCs at room temperature, and a hydrogel was spontaneously formed. The gelation process was completed after 24 h at 4° C. Prior completed gelation, a part of the formulation was diluted by a factor of 60 (v/v) with pure water.
# [3] = Cyt-C16 concentration in the hydrogels of LNCs by LC-MS/MS; assay type: physicochemical; conditions: LC-MS/MS recovery in hydrogels
# Method: The Cyt-C16 concentrations in the hydrogels of LNCs were determined using a LC-MS/MS apparatus: Alliance® 295 system (Waters, Saint-Quentin-en-Yvelines, France) with a Zorbax—Eclipse XDB-C18 column 4.6×150 mm, 3.5 μm, (Agilent Technologies, Santa Clara, United States). The temperature was fixed to 25° C. The mobile phase consisted of methanol with formic acid 0.1% (v/v), at a flow rate of 0.8 mL·min^−1. The injection volume was 10 μL. The total HPLC effluent was directed into a Quattro Micro® triple quadrupole mass spectrometer (Waters Saint-Quentin-en-Yvelines, France). Ionization was achieved using turbo ion spray in positive ion mode. The mass spectrometer operated in multiple reactions monitoring (MRM) mode. The […] transitions for Cyt-C16 was 482>112 and 482>350. Cyt-C16 was diluted in methanol at concentration from 1.25 to 200 ng·mL^−1, in presence of non-loaded LNCs, for the calibration curve. A volume of 50 μL of hydrogels was dissolved with deionized water at 1:4000 (v/v), to obtain a complete dispersion of LNCs. Then, a volume of 100 μL was mixed with 900 μL of methanol. Quantification of Cyt-C16 was achieved after filtration of this solution on 0.22-μm filter.
# B6-KPC3 cells = test: Cellular toxicity, MTS assay, B6-KPC3 cells; assay type: cell-based, mice; conditions: B6-KPC3 cell line, Cyt-C16 2.5% (w/wLabrafac) at the LNC surface
# Method: B6-KPC3 cells (pancreas tumor from transgenic KPC mice) (gift from the Department of Oncology and Surgical Sciences of Padova, Pr. Vincenzo Bronte), were grown in suspension at 37° C., 90% humidity, 5% CO2 in DMEM medium, completed with decomplemented FBS (10% v/v), penicillin (100 UI·mL^−1), streptomycin ([…]), amphotericin B ([…]), HEPES 10 mM (1% v/v), L-glutamin 2 mM (1% v/v), and β-mercaptoethanol 20 μM (1% v/v). The cells (3.5·10^3 cells/well in 200-μL medium) were then plated on a 96-well cell culture dish and left to grow for 48 h at 37° C. The cytotoxicitiy of diluted LNCs (diameter 50 or 100 nm), non-loaded or loaded with Cyt-C16 2.5% (w/wLabrafac), in cell culture medium, was determined. Fresh cell culture medium was used as controls. […] The number of living cells was determined using a MTS (3-(4,5-dimethylthiazol-2-yl)-5-(3-carboxymethoxyphenyl)-2-(4-sulfophenyl)-2H-tetrazolium salt) assay (colorimetric assay based on the conversion of a tetrazolium salt into formazan). Formazan absorbance was measured at 492 nm and 750 nm, directly from well plates using a spectrophotometer Multiscan Ascent® MP reader (Thermo Scientific, Courtaboeuf, France), after exposition to MTS (20 μL per well) for 2.5 h at 37° C. The percentage of cell viability was calculated according to the following equation: […]
smiles,measurement,setting,value
"CCCCCCCCCCCCCCCC(=O)Nc1ccn([C@@H]2O[C@H](CO)[C@@H](O)[C@H]2O)c(=O)n1 [Cyt-C16, 4-(N)-palmitoyl cytidine]",oil gelation of Labrafac after cooling,[1],led to the oil gelation after cooling
same,additional cytotoxicity in comparison to native LNCs,THP-1 cells,does not cause additional cytoxicity
same,effect of adding Cyt-C16 to the LNC formulation process,[2],the LNCs suspension turned into a hydrogel
same,degradation of the molecule by the formulation process,[3],does not degrade
same,additional cytotoxicity in comparison to native LNCs,B6-KPC3 cells,does not cause additional cytoxicity
